Values quoted from earlier work in patent publication US20140073699A1, “Combination Therapies for the Treatment of Obesity” (Metabolous Pharmaceuticals, Inc., priority 2009, published 2014).

Conditions: literature studies

Compound | weight loss of body weight for drug compared with placebo
CCN[C@@H](C)Cc1cccc(C(F)(F)F)c1 [dexfenfluramine] | about 5%
CCCCCCCCCCC[C@@H](C[C@@H]1OC(=O)[C@H]1CCCCCC)OC(=O)[C@H](CC(C)C)NC=O [orlistat] | about 5%
CC(C)CC(N(C)C)C1(c2ccc(Cl)cc2)CCC1 (stereo not drawn) [sibutramine] | about 5%
